In PubChem BioAssay AID192 (DTP/NCI, 2004):
Where “and” joins values, the source holds several entries; their conditions need not be identical. Equal entries are not always repeated. Toxic doses and inconclusive results are not listed. Square brackets hold non-standard residues; d marks the D form. Peptide text beside a SMILES is read from it. * marks the point of attachment. ξ: configuration not given here. Cbz = O=C(OCc1ccccc1)*; ξNle = CCCCC(N)C(=O)O

Tested on: BDF1 mice, B16 melanoma ip, median survival T/C
Test: NCI In Vivo Anticancer Drug Screen. Data for tumor model B16 Melanoma (intraperitoneal) in B6D2F1 (BDF1) mice
Conditions: endpoint: median survival time, higher = longer survival
Procedure, shortened: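 Each result divides a survival or tumor-size measurement in the compound-treated group by the same measurement in the vehicle group.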

[1] = dose: 25.0 mg/kg/injection, schedule: Q01DX009 (ip), vehicle: saline
[2] = dose: 50.0 mg/kg/injection, schedule: Q01DX009 (ip), vehicle: saline
[3] = dose: 25.0 mg/kg/injection, schedule: Q01DX009 (ip), vehicle: saline with Tween-80
[4] = dose: 50.0 mg/kg/injection, schedule: Q01DX009 (ip), vehicle: saline with Tween-80
[5] = dose: 100.0 mg/kg/injection, schedule: Q01DX009 (ip), vehicle: Klucel (hydroxypropylcellulose) (HPC)
[6] = dose: 200.0 mg/kg/injection, schedule: Q01DX009 (ip), vehicle: Klucel (hydroxypropylcellulose) (HPC)
[7] = dose: 400.0 mg/kg/injection, schedule: Q01DX009 (ip), vehicle: Klucel (hydroxypropylcellulose) (HPC)
[8] = dose: 12.5 mg/kg/injection, schedule: Q01DX009 (ip), vehicle: saline with Tween-80
[9] = dose: 100.0 mg/kg/injection, schedule: Q01DX009 (ip), vehicle: saline with Tween-80
[10] = dose: 12.5 mg/kg/injection, schedule: Q01DX009 (ip), vehicle: saline
[11] = dose: 100.0 mg/kg/injection, schedule: Q04DX003 (ip), vehicle: Klucel (hydroxypropylcellulose) (HPC)
[12] = dose: 200.0 mg/kg/injection, schedule: Q01DX009 (ip), vehicle: saline with Tween-80
[13] = dose: 400.0 mg/kg/injection, schedule: Q01DX009 (ip), vehicle: saline with Tween-80
[14] = dose: 6.25 mg/kg/injection, schedule: Q01DX009 (ip), vehicle: saline
[15] = dose: 50.0 mg/kg/injection, schedule: Q01DX009 (ip), vehicle: Klucel (hydroxypropylcellulose) (HPC)
[16] = dose: 25.0 mg/kg/injection, schedule: Q01DX009 (ip), vehicle: Klucel (hydroxypropylcellulose) (HPC)

[N-]=[N+]=CC(=O)CCC(=O)C=[N+]=[N-]
T/C (dose: 0.18 mg/kg/injection, schedule: Q01DX009 (ip), vehicle: other): 92 % of control | T/C (dose: 0.37 mg/kg/injection, schedule: Q01DX009 (ip), vehicle: other): 96 % of control | T/C (dose: 0.39 mg/kg/injection, schedule: Q01DX009 (ip), vehicle: other): 123 % of control | T/C (dose: 0.75 mg/kg/injection, schedule: Q01DX009 (ip), vehicle: other): 92 % of control | T/C (dose: 1.5 mg/kg/injection, schedule: Q01DX009 (ip), vehicle: other): 104 % of control | T/C (dose: 1.56 mg/kg/injection, schedule: Q01DX009 (ip), vehicle: other): 101 % of control and 117 % of control

O=C1C(NCCO)=C(N2CC2)C(=O)C(NCCO)=C1N1CC1
T/C (dose: 0.19 mg/kg/injection, schedule: Q01DX009 (ip), vehicle: saline): 165 % of control and 202 % of control | T/C (dose: 0.37 mg/kg/injection, schedule: Q01DX009 (ip), vehicle: saline): 161 % of control | T/C (dose: 0.38 mg/kg/injection, schedule: Q01DX009 (ip), vehicle: saline): 191 % of control and 236 % of control | T/C (dose: 0.75 mg/kg/injection, schedule: Q01DX009 (ip), vehicle: saline): 221 % of control

COc1cccc2c1C(=O)c1c(O)c3c(c(O)c1C2=O)CC(O)(/C(C)=N/NC(=O)CCC(=O)N/N=C(\C)C1(O)Cc2c(O)c4c(c(O)c2C(OC2CC(N)C(O)C(C)O2)C1)C(=O)c1c(OC)cccc1C4=O)CC3OC1CC(N)C(O)C(C)O1 (configuration not stated)
T/C (dose: 4.0 mg/kg/injection, schedule: Q01DX001 (ip), vehicle: water): 163 % of control | T/C (dose: 8.0 mg/kg/injection, schedule: Q01DX001 (ip), vehicle: water): 165 % of control and 168 % of control and 172 % of control | T/C (dose: 16.0 mg/kg/injection, schedule: Q01DX001 (ip), vehicle: water): 189 % of control and 292 % of control | T/C (dose: 32.0 mg/kg/injection, schedule: Q01DX001 (ip), vehicle: water): 123 % of control and 293 % of control and 313 % of control | T/C (dose: 64.0 mg/kg/injection, schedule: Q01DX001 (ip), vehicle: water): 315 % of control

O=C1NC(=O)C2C3C=CC(C3)C12 (configuration not stated)
T/C [1]: 105 % of control | T/C [2]: 105 % of control | T/C (dose: 100.0 mg/kg/injection, schedule: Q01DX009 (ip), vehicle: saline): 113 % of control

CC1(CC(C)(C)C2CCCCC2)OCCO1
T/C (dose: 12.5 mg/kg/injection, schedule: Q01DX009 (ip), vehicle: other): 100 % of control | T/C (dose: 25.0 mg/kg/injection, schedule: Q01DX009 (ip), vehicle: other): 93 % of control | T/C (dose: 50.0 mg/kg/injection, schedule: Q01DX009 (ip), vehicle: other): 90 % of control

COC(=O)C1=CO[C@@H](C)[C@@H]2Cn3ccc4c5ccccc5nc-4c3C[C@H]12
T/C [3]: 94 % of control | T/C [4]: 89 % of control

CCOC(=O)/C=C(\C)Nc1ccc(F)cc1
T/C [5]: 88 % of control | T/C [6]: 97 % of control | T/C [7]: 91 % of control

CCN(CC)CCC(=O)c1ccccc1
T/C (dose: 3.12 mg/kg/injection, schedule: Q01DX009 (ip), vehicle: saline with Tween-80): 114 % of control | T/C (dose: 6.25 mg/kg/injection, schedule: Q01DX009 (ip), vehicle: saline with Tween-80): 108 % of control | T/C [8]: 117 % of control | T/C [3]: 107 % of control | T/C [4]: 108 % of control | T/C [9]: 107 % of control

OCCN1CCN(CCCN2c3ccccc3Sc3cccnc32)CC1
T/C (dose: 9.37 mg/kg/injection, schedule: Q01DX009 (ip), vehicle: saline): 89 % of control | T/C [10]: 93 % of control | T/C (dose: 18.75 mg/kg/injection, schedule: Q01DX009 (ip), vehicle: saline): 107 % of control | T/C [1]: 113 % of control | T/C (dose: 37.5 mg/kg/injection, schedule: Q01DX009 (ip), vehicle: saline): 105 % of control | T/C (dose: 75.0 mg/kg/injection, schedule: Q01DX009 (ip), vehicle: saline): 102 % of control

CCOC(=O)Nc1cccc2ccccc12
T/C [11]: 102 % of control | T/C (dose: 200.0 mg/kg/injection, schedule: Q04DX003 (ip), vehicle: Klucel (hydroxypropylcellulose) (HPC)): 105 % of control | T/C (dose: 400.0 mg/kg/injection, schedule: Q04DX003 (ip), vehicle: Klucel (hydroxypropylcellulose) (HPC)): 102 % of control

CN1C(=O)C(=Cc2ccc(O)cc2)C(=O)N(C)C1=O
T/C [8]: 101 % of control | T/C [3]: 97 % of control

COc1ccccc1NC(=O)c1ccccc1
T/C [9]: 97 % of control | T/C [12]: 107 % of control | T/C [13]: 97 % of control

CC1CN1P(=O)(N1CC1C)N1CC1C (configuration not stated)
T/C [14]: 120 % of control | T/C [10]: 100 % of control and 112 % of control | T/C [1]: 113 % of control | T/C (dose: 25.0 mg/kg/injection, schedule: Q04DX003 (ip), vehicle: saline): 113 % of control | T/C (dose: 50.0 mg/kg/injection, schedule: Q04DX003 (ip), vehicle: saline): 120 % of control | T/C (dose: 100.0 mg/kg/injection, schedule: Q04DX003 (ip), vehicle: saline): 93 % of control

O=C(Nc1ccc(C(=O)Nc2cc(S(=O)(=O)O)cc3cccc(S(=O)(=O)O)c23)cc1)Nc1ccc(C(=O)Nc2cc(S(=O)(=O)O)cc3cccc(S(=O)(=O)O)c23)cc1
T/C [15]: 108 % of control | T/C [5]: 113 % of control | T/C [6]: 100 % of control

CCCCNc1ccc(Nc2ccccc2)cc1
T/C (dose: 25.0 mg/kg/injection, schedule: Q01DX009 (ip), vehicle: saline + alcohol): 103 % of control | T/C (dose: 50.0 mg/kg/injection, schedule: Q01DX009 (ip), vehicle: saline + alcohol): 104 % of control

OCc1cc(Cl)ccc1O
T/C [15]: 103 % of control | T/C [5]: 96 % of control | T/C [6]: 86 % of control

c1ccc([B-]2([C+]3CCCCC3)N3CCCCC3C3CCCCN32)cc1 (configuration not stated)
T/C (dose: 12.5 mg/kg/injection, schedule: Q01DX009 (ip), vehicle: Klucel (hydroxypropylcellulose) (HPC)): 106 % of control | T/C [16]: 93 % of control

C=C(C)[C@]12CC(C)C34OC(/C=C\C=C\CCCCCCCCC)(O[C@@H]1[C@@H]3[C@@H]1O[C@]1(CO)[C@@H](O)[C@]1(O)C(=O)C(C)=C[C@@H]41)O2 (some centres not stated)
T/C (dose: 0.09 mg/kg/injection, schedule: Q01DX009 (ip), vehicle: alcohol): 88 % of control | T/C (dose: 0.18 mg/kg/injection, schedule: Q01DX009 (ip), vehicle: saline + alcohol): 98 % of control | T/C (dose: 0.19 mg/kg/injection, schedule: Q01DX009 (ip), vehicle: alcohol): 88 % of control | T/C (dose: 0.37 mg/kg/injection, schedule: Q01DX009 (ip), vehicle: saline + alcohol): 89 % of control

CC1(C)N=C(N)N=C(N)N1c1ccc(F)c(C(F)(F)F)c1
T/C (dose: 3.12 mg/kg/injection, schedule: Q01DX009 (ip), vehicle: saline): 96 % of control | T/C [14]: 118 % of control | T/C (dose: 12.0 mg/kg/injection, schedule: Q01DX009 (ip), vehicle: saline): 120 % of control

CCOc1cc(C2=NNc3n[nH]c(=S)n3N2)ccc1O
T/C [16]: 96 % of control | T/C (dose: 25.0 mg/kg/injection, schedule: Q04DX003 (ip), vehicle: Klucel (hydroxypropylcellulose) (HPC)): 97 % of control | T/C [15]: 100 % of control | T/C (dose: 50.0 mg/kg/injection, schedule: Q04DX003 (ip), vehicle: Klucel (hydroxypropylcellulose) (HPC)): 102 % of control | T/C [11]: 122 % of control

CCCCC(NC(=O)OCc1ccccc1)C(=O)NCC(=O)OC (configuration not stated) (Cbz-[ξNle]-Gly-OMe)
T/C [4]: 96 % of control | T/C [9]: 115 % of control | T/C [12]: 112 % of control | T/C [13]: 92 % of control

CC(C)NC(=O)N(c1ccccc1)C(C)C
T/C [15]: 105 % of control | T/C [5]: 103 % of control

C[C@]12CC[C@H](OC(=O)COc3ccc(N(CCCl)CCCl)cc3)C[C@@H]1CC[C@@H]1[C@@H]2CC[C@]2(C)NC(=O)CC[C@@H]12
T/C (dose: 4.0 mg/kg/injection, schedule: Q01DX009 (ip), vehicle: saline with Tween-80): 111 % of control | T/C (dose: 32.0 mg/kg/injection, schedule: Q01DX009 (ip), vehicle: saline with Tween-80): 109 % of control

NC(=S)c1cn(C2OC(CO)C(O)C2O)c2ncnc(N)c12 (configuration not stated)
T/C (dose: 2.5 mg/kg/injection, schedule: Q01DX009 (ip), vehicle: saline): 89 % of control | T/C (dose: 5.0 mg/kg/injection, schedule: Q01DX009 (ip), vehicle: saline): 91 % of control

Cc1cc(N)c2cc(NC(=O)CCCCCC(=O)Nc3ccc4nc(C)cc(N)c4c3)ccc2n1
T/C [8]: 90 % of control | T/C [3]: 98 % of control | T/C [4]: 110 % of control

O=C(Cc1ccccc1)OCCc1ccccc1
T/C [5]: 103 % of control | T/C [6]: 100 % of control | T/C [7]: 93 % of control

C1CCN(CCC2CCCCN2)CC1 (configuration not stated)
T/C [1]: 106 % of control | T/C [2]: 100 % of control
